Data on two molecules can be found in patent publication US6730666B1, “Pharmaceutical compositions comprising porphyrins and some novel porphyrin derivatives” (Yeda Research and Development Co. Ltd., priority 1998, dated 2004).

In assay [1] the target is T1, FGFR-3 (Homo sapiens, UniProt P22607).
T1 construct: soluble FGFR-3 ectodomain alkaline phosphatase fusion protein (FR-3-AP); made in house; host or cells: NIH 3T3 cells (conditioned medium)
T1 sequence (P22607 23-375 limits assumed): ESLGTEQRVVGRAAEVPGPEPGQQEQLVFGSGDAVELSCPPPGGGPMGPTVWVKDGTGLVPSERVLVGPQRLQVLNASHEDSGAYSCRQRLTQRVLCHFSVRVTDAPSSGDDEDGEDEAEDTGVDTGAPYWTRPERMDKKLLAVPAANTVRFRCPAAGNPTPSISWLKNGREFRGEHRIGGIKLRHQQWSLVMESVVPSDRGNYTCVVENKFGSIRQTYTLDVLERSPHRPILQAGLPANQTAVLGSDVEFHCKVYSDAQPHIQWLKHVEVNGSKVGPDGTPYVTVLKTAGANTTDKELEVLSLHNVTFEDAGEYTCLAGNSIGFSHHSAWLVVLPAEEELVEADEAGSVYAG
Put plainly: Binding of 125I-FGF9 to immobilized soluble FGFR-3 (FR-3-AP). The following applies: FIG. 11. The procedure:
Incubations were performed in the presence of 100 ng/ml heparin and increasing concentrations of porphyrins. […] Results represent the mean value in one of at least two independent experiments.
(iii) Binding of ^125I-bFGF or ^125I-FGF9 to s luble FGFR-1 or FGFR-3. Conditioned medium from NIH 3T3 cells secreting soluble FRAP or FGFR-3 FR-3-AP, was incubated for 45 min at room temperature with rabbit anti-human placental AP antibodies (generated as described in Ornitz et al, 1991) prebound to agarose-protein A beads Pierce). The FGFR-1 or FGFR-3-coupled beads were washed three times with 1 ml HNTG and incubated with 2 ng/ml of ^125I-FGF, 1 μg/ml of heparin and porphyrin/corrole compound at different concentrations for 1 h at room temperature. High affinity-bound ^125I-bFGF was determined by counting of the samples in a γ-counter.
Thus, the compounds were tested for their capacity to inhibit binding of a soluble FGFR-3 ectodomain alkaline phosphatase fusion protein (FR-3-AP) to FGF-9, utilizing a cell free system, similar to the one described for FGFR-1 in Example 1 above, and measuring the binding of radiolabeled ^125I-FGF-9 to soluble FGFR-3.

Assay [2] deals with T2, soluble FGFR-1 (FRAP) (Mus musculus, UniProt P16092).
T2 sequence (P16092 22-376 limits assumed): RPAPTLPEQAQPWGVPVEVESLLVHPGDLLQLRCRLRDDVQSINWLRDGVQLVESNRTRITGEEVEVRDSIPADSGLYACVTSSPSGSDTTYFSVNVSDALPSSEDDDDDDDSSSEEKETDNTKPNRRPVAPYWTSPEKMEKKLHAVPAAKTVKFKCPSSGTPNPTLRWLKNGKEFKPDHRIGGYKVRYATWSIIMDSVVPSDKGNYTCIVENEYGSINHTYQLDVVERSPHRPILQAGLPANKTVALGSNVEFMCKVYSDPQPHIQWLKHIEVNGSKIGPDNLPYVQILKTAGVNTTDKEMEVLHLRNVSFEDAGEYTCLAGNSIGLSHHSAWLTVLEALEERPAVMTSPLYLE
The assay can be described thus: Binding of 125I-bFGF to immobilized soluble FGFR-1 (FRAP), cell-free.
From the text: First we utilized a cell-free system, measuring the binding of radiolabeled bFGF to a dimeric soluble FGFR-1 fused to alkaline phosphatase. […] As a: second experimental model, we used CHO cells deficient in heparan sulfate and genetically engineered to express FGFR-1 (Methods, section (iv)).

For assay [3], the target named is FGFR-1 (Mus musculus, UniProt P16092). Put plainly: Binding of 125I-bFGF to CHO cells expressing FGFR-1. Conditions: read-out: Cellular receptor binding (IC50); binding of FGF to FGFR; Methods section (iv).
FGFR-1, sequence (P16092 22-822): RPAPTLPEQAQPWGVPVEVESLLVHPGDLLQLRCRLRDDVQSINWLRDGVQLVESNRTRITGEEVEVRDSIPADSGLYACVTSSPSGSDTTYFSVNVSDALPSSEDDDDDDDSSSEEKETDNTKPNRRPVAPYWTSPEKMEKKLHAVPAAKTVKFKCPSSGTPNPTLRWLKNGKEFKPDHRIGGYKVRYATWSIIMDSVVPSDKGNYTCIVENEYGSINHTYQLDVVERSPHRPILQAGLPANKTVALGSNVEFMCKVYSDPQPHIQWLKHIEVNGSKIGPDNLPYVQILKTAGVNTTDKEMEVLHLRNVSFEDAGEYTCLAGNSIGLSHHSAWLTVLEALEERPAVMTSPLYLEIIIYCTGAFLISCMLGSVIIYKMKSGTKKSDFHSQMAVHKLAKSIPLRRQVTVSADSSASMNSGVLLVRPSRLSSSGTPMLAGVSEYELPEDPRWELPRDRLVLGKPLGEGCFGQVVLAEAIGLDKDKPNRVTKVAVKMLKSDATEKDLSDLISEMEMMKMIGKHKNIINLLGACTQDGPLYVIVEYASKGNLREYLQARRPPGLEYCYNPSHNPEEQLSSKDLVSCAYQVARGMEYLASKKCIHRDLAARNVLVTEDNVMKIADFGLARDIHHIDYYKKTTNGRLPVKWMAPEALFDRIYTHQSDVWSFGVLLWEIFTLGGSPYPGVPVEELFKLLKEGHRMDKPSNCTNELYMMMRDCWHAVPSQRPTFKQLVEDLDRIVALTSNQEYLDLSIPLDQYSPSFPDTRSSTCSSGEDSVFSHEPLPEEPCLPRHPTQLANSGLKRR
Method: The binding medium was discarded and the cells were washed once with ice-cold DMEM/BSA and twice with cold PBS (pH 7.5) containing 1.6M NaCl. […] Non-specific binding was determined in the presence of a 100-fold excess of unlabeled bFGF.
First we utilized a cell-free system, measuring the binding of radiolabeled bFGF to a dimeric soluble FGFR-1 fused to alkaline phosphatase. The soluble FRAP was immobilized using an anti-alkaline phosphatase antibody prebound to agarose-protein A beads (see Methods, section (iii)). As a: second experimental model, we used CHO cells deficient in heparan sulfate and genetically engineered to express FGFR-1 (Methods, section (iv)).
Assay [4] has as its system Lewis lung carcinoma (LLC) lung metastasis. Put plainly: Lewis lung carcinoma lung metastasis model. Details: Inhibitory activity in vivo, LLC tumor model (as % of total inhibition): reference not given here. The format is in vivo, C57 black mice. How it is done:
(vii) Lewis lung carcinoma tumor assay. Murine Lewis lung carcinoma (LLC) D122 cells (1×10^6 cells/[…] PBS) were injected into the foot pads of 10-week old C57 black mice (O'Reilly et al, 1994). Twenty five μg/g of body mass of porphyrin or corrole compound dissolved in PBS were injected IP twice a week to the treated group, and tumor size was measured periodically in order to follow primary tumor formation. In order to evaluate inhibition of lung metastasis by porphyrin or corrole compound, the primary tumors were allowed to develop over a period of six weeks to a volume of approximately 8 mm^3; after which the tumors were removed and metastases were allowed to develop for four weeks. During this time the treated group received 25 μg/g of body mass of porphyrin or corrole compound IP twice a week. Subsequently the mice were sacrificed, dissected and the lungs removed and photographed. The extent of lung metastasis was measured by weighing the lungs.
After establishing the capacity of P1 to inhibit primary tumor growth, the capacity of P1 to inhibit lung metastasis formation was measured as described in Methods, section (vi). Mice were injected with LLC cells (200,000 cells per mouse) into the foot pad and primary tumors were allowed to develop over a period of 3 to 4 weeks to a volume of approximately 8 mm^3. Subsequently, primary tumors were removed through amputation and lung metasases were allowed to develop for four weeks before the mice were sacrificed. The extent of lung metastasis at this point was examined by gross morphological examination and by determining the gain in lung weight. […] In order to quantitate the results from these experiments, the lungs from all mice were weighed and evaluated for the extent of metastatic growth.

For assay [5], the target named is FGF receptor (Mus musculus, UniProt P16092). The assay can be described thus: In vitro inhibition of bFGF binding (assay format not stated).
FGF receptor, sequence (P16092 22-822): as above

Entries after “also recorded” stand apart in the source; their conditions may differ.

On to `C[N+](C)(C)c1c(F)c(F)c(-c2c3nc(c(-c4c(F)c(F)c([N+](C)(C)C)c(F)c4F)c4ccc([nH]4)c(-c4c(F)c(F)c([N+](C)(C)C)c(F)c4F)c4nc(c(-c5c(F)c(F)c([N+](C)(C)C)c(F)c5F)c5ccc2[nH]5)C=C4)C=C3)c(F)c1F.O=S(=O)([O-])C(F)(F)F.O=S(=O)([O-])C(F)(F)F.O=S(=O)([O-])C(F)(F)F.O=S(=O)([O-])C(F)(F)F` [Compound P15, 5,10,15,20-Tetrakis(2,3,5,6-tetrafluoro-4-trimethyl-ammonio-phenyl)-21H,23H-methyl-porphine tetra-trifluoromethylsulfonate], for which the “Relative potency in FGF-9/FGFR-3 soluble receptor assay, in words” value in assay [1] is recorded as “more potent”. In addition, the IC50 (usually the concentration that gives 50% inhibition) in assay [2] (read-out: Soluble receptor binding (IC50), binding of FGF to FGFR, Methods section (iii)) was determined as 80 nM; in assay [3] it was 120 nM.

`C[n+]1ccccc1-c1c(F)c(F)c(-c2c3nc(c(-c4c(F)c(F)c(-c5cccc[n+]5C)c(F)c4F)c4ccc([nH]4)c(-c4c(F)c(F)c(-c5cccc[n+]5C)c(F)c4F)c4nc(c(-c5c(F)c(F)c(-c6cccc[n+]6C)c(F)c5F)c5ccc2[nH]5)C=C4)C=C3)c(F)c1F` [Compound P20, 5,10,15,20-Tetrakis[4-(N-methyl-2-pyridylium) 2,3,5,6-tetrafluoro-phenyl]-21H,23H-porphine tetraiodide]: in assay [2] (FIG. 8B), the “Inhibition of bFGF binding to immobilized FRAP, in words” value is listed as “inhibit bFGF binding in vitro”. Besides, in assay [4] (25 μg/g of body mass IP), the “Inhibition of lung metastasis in LLC model, in words” value is given as “highly active in vivo; also recorded: more active than P1”. The “Inhibitory activity in vivo, LLC tumor model (as % of total inhibition)” value in assay [4] (25 μg/gram, LLC murine tumor model, lung metastasis) is listed as 150%. Further, the “Activity in vitro in words (inhibition of bFGF binding)” value in assay [5] was “significantly more active than P1”.
